The results in this text go back to US10774111B2, “Opioid peptide” (Embrapa—Empresa Brasileira de Pesquisa Agropecuária, priority 2014, dated 2020).

Ends that are not written are not given here.

The test system of one data set is trypsin. The conditions noted are these: incubation with trypsin enzyme (enzymes present in the gastrointestinal tract), in vitro. The protocol: FIG. 11—Representation of the fragments obtained at the different incubation times with the enzyme trypsin. Analysis performed by mass spectrometry, MALDI. The first spectrum, marked with the letter A, refers to the time of 15 minutes; the second spectrum marked with the letter B indicates the time of 30 minutes; C indicates the time of 2 hour2; D indicates the time of 4 hours; and, finally, E is the control peptide (SEQ ID NO: 6).
FIG. 12—Representation of the fragments obtained at the different incubation times with the enzyme trypsin. Analysis performed by mass spectrometry, MALDI.
By means of this experiment it was possible to try to observe the in vitro peptide digestion by the enzyme present in the organism.

For data set [1], the system named is Swiss mice. Briefly: Hot Plate nociception test in mice. The data set is classed as in vivo, Mus musculus. The conditions noted are these: i.p. in mice, dose based on dose and molarity of morphine 10 mg/kg (Leu-enkephalin 19.3 mg/kg), followed 120-240 min. The method, then: (§1) In vivo analyzes: Tests were carried out on Swiss mice of the Mus musculus species, in which nociception tests (Hot Plate and Tail Flick) were used according to Le Bars et al. (2001). Injections were administered via intraperitoneal (IP). Doses were based upon dose and molaridade of the morphine (10 mg/kg animal).
To initiate the nociceptive tests and verify the efficiency of the same, a pilot experiment was carried out using the peptide sequence SEQ ID NO: 2 and evaluating the behavior of the animals in the course of two hours.

For data set [2], the system named is Swiss mice. Briefly: Tail Flick nociception test in mice. The data set is classed as in vivo, Mus musculus. The conditions noted are these: i.p. in mice, 240 min. The method, then: as §1
Another data set addresses immobilized pepsin (Homo sapiens, UniProt P0DJD8). The conditions noted are these: 4 hours, 37° C., 1400 RPM.

Chain of immobilized pepsin (P0DJD8 63-388): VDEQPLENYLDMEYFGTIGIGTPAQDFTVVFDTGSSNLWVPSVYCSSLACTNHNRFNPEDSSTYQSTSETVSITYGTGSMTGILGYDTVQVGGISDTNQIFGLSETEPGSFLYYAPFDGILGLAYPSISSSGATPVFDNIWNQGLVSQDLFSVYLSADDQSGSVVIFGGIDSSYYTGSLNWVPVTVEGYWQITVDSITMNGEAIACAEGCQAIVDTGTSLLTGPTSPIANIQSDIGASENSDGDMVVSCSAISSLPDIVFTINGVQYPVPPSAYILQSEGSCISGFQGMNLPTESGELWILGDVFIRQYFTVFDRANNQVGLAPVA
Description for immobilized pepsin: Digestion of the immobilized pepsin precursor: the peptide sequence SEQ ID NO: 6 was digested using immobilized pepsin for a period of 4 hours at 37° C. under agitation of 1400 RPM evaluating the fragmentation index at the times of 15 minutes, 30 minutes, 2 hours and 4 hours.
The peptide sequence SEQ ID NO: 6 was digested using immobilized pepsin for a period of 4 hours, evaluating the fragmentation index at the times of 15 minutes, 30 minutes, 2 hours and 4 hours.
Enkephalin (Leu) was digested using immobilized pepsin for a period of 4 hours, evaluating the fragmentation index at the times of 30 minutes, 1 hour, 2 hours and 4 hours.

Take `CC(C)C[C@H](NC(=O)[C@H](Cc1ccccc1)NC(=O)CNC(=O)CNC(=O)[C@@H](N)Cc1ccc(O)cc1)C(=O)O` [Leu-enkephalin, reference compound]: the “intensity of the major peak during incubation” value in the data set with trypsin is reported as “reducing”. With “SEQ ID NO: 2: synthetic opioid peptide of the formula TyrGlyGly-X1-X2-X3-X4; sequence not printed in the text (YGGTGAH)”, the “antinociceptive (opioid) activity, latency index” value with Swiss mice [1] was “delayed and prolonged activity”. Consider “SEQ ID NO: 3: synthetic opioid peptide of the formula TyrGlyGly-X1-X2-X3-X4; sequence not printed in the text (YGGEGVQ)”, for which the “antinociceptive (opioid) activity, latency index” value in the data set on Swiss mice [1] was “possible to visualize the activity”. In the data set on Swiss mice [2], the “antinociceptive activity, latency index” value was “possible to visualize the activity”. As for “SEQ ID NO: 4: synthetic opioid peptide of the formula TyrGlyGly-X1-X2-X3-X4; sequence not printed in the text (YGGTTGT)”, in the data set on Swiss mice [1], the “antinociceptive (opioid) activity, latency index” value is given as “antinociception activity”. Moreover, in the data set with Swiss mice [2], the “antinociceptive activity, latency index” value was “antinociception activity”. With “SEQ ID NO: 5: synthetic opioid peptide of the formula TyrGlyGly-X1-X2-X3-X4; sequence not printed in the text (YGGEGEQ)”, the “antinociceptive (opioid) activity, latency index” value in the data set on Swiss mice [1] is recorded as “antinociceptive”. Moreover, the “antinociceptive activity, latency index” value in the data set on Swiss mice [2] is recorded as “antinociceptive”. With YGGTAGAHGTY [SEQ ID NO: 6], at immobilized pepsin, the “fragmentation index (precursor ion and lower mass ions over time)” value was “increase in the intensity of the lower mass ions over time and the decrease of the precursor ion”. The “intensity of the major peak during incubation” value with trypsin is on record as “reducing”.
